Test results: patent EP2696861B1, “COMBINATION OF EPA, DPA AND/OR DHA WITH A CHEMOTHERAPEUTIC AGENT” (priority 2011, dated 2012)

Test system: C26 cells
Assay: Metabolic activity of C26 cells after fatty acid pre-incubation and chemotherapy incubation
Format: cell-based, Murine
Details: 4 days pre-incubation with 50 µM fatty acid, medium removed, compared to control, p< 0.0001 for EPA or DPA
Description: C = mice receiving control diet B, TB = tumor-bearing mice receiving control diet, TB-SNC = tumor-bearing mice receiving the specific nutritional combination.
Prior to chemotherapy incubations, C26 cells were pre-incubated for 4 days with EPA, DHA or DPA in a final concentration of 50 µM. To avoid direct interaction between fatty acids and chemotherapeutics, the medium containing fatty acids was removed before the addition of chemotherapy. The cells were incubated for 24 hr with the chemotherapeutics cisplatin and doxorubicin, after incubation the metabolic activity was measured.

Structure (SMILES): CC/C=C\C/C=C\C/C=C\C/C=C\C/C=C\C/C=C\CCC(=O)O [DHA, docosahexanoic acid]
- metabolic activity after cisplatin treatment (then 24 hr cisplatin): no significant changes in metabolic activity
- metabolic activity of doxorubicin treated cells (then 24 hr doxorubicin): no significant changes in metabolic activity
